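Tested at 5 concentrations; 48 h exposure; 96-well plates; endpoints linearly interpolated, else capped at highest concentration. Here, GI50 denotes the concentration required for 50% inhibition of growth.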 Activity calls are given as the source filed them. Rule as the data show it: active = GI50 up to about 1.1 µM and inactive = higher.
How the values were obtained:
Assay in all cases: NCI-60 cell line screen, 48 h
SF-268 = system: SF-268
UACC-257 = system: UACC-257
HCC 2998 = system: HCC 2998
NCI-H460 = system: NCI-H460
COLO 205 = system: COLO 205
786-0 = system: 786-0
HT-29 = system: HT-29
CAKI-1 = system: CAKI-1
U-251 = system: U-251
SF-295 = system: SF-295
ACHN = system: ACHN
HL-60 = system: HL-60
M14 = system: M14
DMS-114 = system: DMS-114
MOLT-4 = system: MOLT-4
A549 = system: A549
SN12C = system: SN12C
RPMI-8226 = system: RPMI-8226
MDA-N = system: MDA-N
MDA-MB-435 = system: MDA-MB-435

SMILES	GI50 (SF-268)	GI50 (UACC-257)	GI50 (HCC 2998)	GI50 (NCI-H460)	GI50 (COLO 205)	GI50 (786-0)	GI50 (HT-29)	GI50 (CAKI-1)	GI50 (U-251)	GI50 (SF-295)	GI50 (ACHN)	GI50 (HL-60)	GI50 (M14)	GI50 (DMS-114)	GI50 (MOLT-4)	GI50 (A549)	GI50 (SN12C)	GI50 (RPMI-8226)	GI50 (MDA-N)	GI50 (MDA-MB-435)
Cc1ccc(C)c2sc3cc(=O)ccc-3nc12	43.5 µM (inactive)	35.1 µM (inactive)	44.1 µM (inactive)	34.2 µM (inactive)	63.8 µM (inactive)	39.2 µM (inactive)	44 µM (inactive)	22 µM (inactive)	35.7 µM (inactive)	39.1 µM (inactive)	30 µM (inactive)	10.5 µM (inactive)	18.2 µM (inactive)	30.5 µM (inactive)	15 µM (inactive)	41.2 µM (inactive)	57.7 µM (inactive)	–	–	–
N#CC(NNC(=O)Cc1ccccc1)c1ccc(O)cc1 (stereo not drawn)	> 100 µM (inactive)	> 100 µM (inactive)	–	> 100 µM (inactive)	> 100 µM (inactive)	> 100 µM (inactive)	> 100 µM (inactive)	> 100 µM (inactive)	> 100 µM (inactive)	> 100 µM (inactive)	> 100 µM (inactive)	> 100 µM (inactive)	> 100 µM (inactive)	> 100 µM (inactive)	> 100 µM (inactive)	> 100 µM (inactive)	> 100 µM (inactive)	> 100 µM (inactive)	–	–
O=C(CC(=O)Nc1ccc(Cl)cc1)NNCC(=O)Nc1nc(-c2ccccc2)cs1	> 100 µM (inactive)	–	> 100 µM (inactive)	> 100 µM (inactive)	> 100 µM (inactive)	> 100 µM (inactive)	> 100 µM (inactive)	–	> 100 µM (inactive)	> 100 µM (inactive)	–	> 100 µM (inactive)	> 100 µM (inactive)	> 100 µM (inactive)	> 100 µM (inactive)	> 100 µM (inactive)	> 100 µM (inactive)	> 100 µM (inactive)	–	–
CC(C)(C)c1ccc(OC2CCO2)cc1 (stereo not drawn)	33.6 µM (inactive)	31.6 µM (inactive)	27.5 µM (inactive)	24.3 µM (inactive)	29.4 µM (inactive)	28.7 µM (inactive)	23.1 µM (inactive)	38.1 µM (inactive)	18.7 µM (inactive)	46.9 µM (inactive)	34.5 µM (inactive)	–	42.6 µM (inactive)	39.5 µM (inactive)	38.1 µM (inactive)	61.2 µM (inactive)	18.7 µM (inactive)	22.1 µM (inactive)	–	–
COc1ccccc1/N=N/C(C(=O)c1ccccc1)C(=O)c1ccccc1	21.1 µM (inactive)	28.4 µM (inactive)	27.1 µM (inactive)	19.6 µM (inactive)	33.3 µM (inactive)	24.4 µM (inactive)	25.9 µM (inactive)	25.2 µM (inactive)	18.5 µM (inactive)	17.8 µM (inactive)	21.6 µM (inactive)	7.8 µM (inactive)	15 µM (inactive)	15.2 µM (inactive)	9.48 µM (inactive)	22.4 µM (inactive)	17.2 µM (inactive)	12.4 µM (inactive)	–	–
COc1ccc2c(c1)c1c3n2CCNN=C3CCC1	88.7 µM (inactive)	> 53.8 µM (inactive)	> 100 µM (inactive)	> 100 µM (inactive)	> 91 µM (inactive)	> 100 µM (inactive)	> 100 µM (inactive)	24.8 µM (inactive)	> 48.5 µM (inactive)	> 100 µM (inactive)	72.4 µM (inactive)	5.66 µM (inactive)	> 100 µM (inactive)	74.6 µM (inactive)	> 37.5 µM (inactive)	> 83.8 µM (inactive)	> 61.7 µM (inactive)	29.4 µM (inactive)	–	–
CC(C)NC(C)Cc1ccccc1 (stereo not drawn)	> 100 µM (inactive)	> 100 µM (inactive)	> 100 µM (inactive)	> 100 µM (inactive)	> 100 µM (inactive)	> 100 µM (inactive)	> 100 µM (inactive)	> 100 µM (inactive)	> 100 µM (inactive)	> 100 µM (inactive)	> 100 µM (inactive)	> 100 µM (inactive)	> 100 µM (inactive)	> 100 µM (inactive)	–	> 100 µM (inactive)	> 100 µM (inactive)	> 100 µM (inactive)	–	–
COC(=O)C1C=CCC2CCCCC21N1CCCC1 (stereo not drawn)	63.5 µM (inactive)	> 100 µM (inactive)	69.2 µM (inactive)	55.2 µM (inactive)	40.9 µM (inactive)	> 100 µM (inactive)	48.1 µM (inactive)	> 100 µM (inactive)	40.4 µM (inactive)	> 100 µM (inactive)	> 100 µM (inactive)	19.7 µM (inactive)	> 100 µM (inactive)	36.1 µM (inactive)	64.4 µM (inactive)	71.8 µM (inactive)	78.5 µM (inactive)	42.7 µM (inactive)	–	–
O=[N+]([O-])c1ccc(/C=N/C2CCCCC2)cc1	> 100 µM (inactive)	> 100 µM (inactive)	> 100 µM (inactive)	> 100 µM (inactive)	> 100 µM (inactive)	> 100 µM (inactive)	> 100 µM (inactive)	> 100 µM (inactive)	> 100 µM (inactive)	> 100 µM (inactive)	> 100 µM (inactive)	> 100 µM (inactive)	> 100 µM (inactive)	> 100 µM (inactive)	> 100 µM (inactive)	> 100 µM (inactive)	> 100 µM (inactive)	–	–	–
COc1cc(/C=C\c2ccccn2)cc(OC)c1OC	> 100 µM (inactive)	> 100 µM (inactive)	–	> 100 µM (inactive)	66.1 µM (inactive)	> 100 µM (inactive)	46.3 µM (inactive)	> 100 µM (inactive)	> 100 µM (inactive)	> 100 µM (inactive)	> 100 µM (inactive)	31 µM (inactive)	55.6 µM (inactive)	45.6 µM (inactive)	61.9 µM (inactive)	85.7 µM (inactive)	> 100 µM (inactive)	30.6 µM (inactive)	–	–
COC(=O)C1CCc2c1c(=O)n1c([nH]c3ccccc31)c2C#N (stereo not drawn)	> 100 µM (inactive)	> 100 µM (inactive)	> 100 µM (inactive)	> 100 µM (inactive)	> 100 µM (inactive)	> 100 µM (inactive)	> 100 µM (inactive)	> 100 µM (inactive)	> 100 µM (inactive)	> 100 µM (inactive)	> 100 µM (inactive)	> 100 µM (inactive)	> 100 µM (inactive)	> 100 µM (inactive)	–	> 100 µM (inactive)	–	> 100 µM (inactive)	–	–
Oc1cc(-c2ccccc2)c2ccccc2n1	52.6 µM (inactive)	61 µM (inactive)	–	41.9 µM (inactive)	> 100 µM (inactive)	> 100 µM (inactive)	> 100 µM (inactive)	13.4 µM (inactive)	69.5 µM (inactive)	87.9 µM (inactive)	33.4 µM (inactive)	88.1 µM (inactive)	41.8 µM (inactive)	12.7 µM (inactive)	37.8 µM (inactive)	34.4 µM (inactive)	30.9 µM (inactive)	67.6 µM (inactive)	–	–
Cn1nc(-c2ccccc2)c(C(=O)/C=C/c2ccccc2)c(N2CCCCC2)c1=O	23.7 µM (inactive)	–	–	7.67 µM (inactive)	9.98 µM (inactive)	12.5 µM (inactive)	11.7 µM (inactive)	22.2 µM (inactive)	> 100 µM (inactive)	–	46.1 µM (inactive)	2.72 µM (inactive)	47.6 µM (inactive)	> 100 µM (inactive)	2.36 µM (inactive)	9.86 µM (inactive)	> 100 µM (inactive)	4.22 µM (inactive)	–	–
CCCNC(=O)CCC(C)C1CCC2C3C(C[C@H](OC(C)=O)[C@]12C)[C@@]1(C)CCC2(C[C@H]1C[C@H]3OC(C)=O)OOC1(CC[C@]3(C)C4C[C@H](OC(C)=O)[C@]5(C)C(C(C)CCC(=O)NCCC)CCC5C4[C@H](OC(C)=O)C[C@@H]3C1)OO2 (stereo partly drawn)	32.1 µM (inactive)	31 µM (inactive)	> 100 µM (inactive)	> 100 µM (inactive)	> 100 µM (inactive)	> 100 µM (inactive)	> 100 µM (inactive)	46.5 µM (inactive)	> 100 µM (inactive)	60.4 µM (inactive)	4.37 µM (inactive)	> 100 µM (inactive)	25.6 µM (inactive)	–	> 100 µM (inactive)	> 100 µM (inactive)	> 100 µM (inactive)	> 100 µM (inactive)	> 100 µM (inactive)	> 100 µM (inactive)
C[C@]12CC[C@H]3[C@@H](CCC4=C[C@@H](N5CCCC5)CC[C@@]43C)[C@@H]1C/C(=C\c1ccncc1)[C@@H]2O	16.5 µM (inactive)	6.19 µM (inactive)	5.07 µM (inactive)	11.6 µM (inactive)	6.32 µM (inactive)	2.86 µM (inactive)	0.631 µM (active)	28.8 µM (inactive)	12.6 µM (inactive)	4.91 µM (inactive)	17 µM (inactive)	16 µM (inactive)	2.39 µM (inactive)	–	7.73 µM (inactive)	12.3 µM (inactive)	14.1 µM (inactive)	4.79 µM (inactive)	11.4 µM (inactive)	10.3 µM (inactive)
CCOC(=O)[C@H](CCCNC(=O)OC(C)(C)C)NCc1ccc(OC)c(OC)c1	> 100 µM (inactive)	> 100 µM (inactive)	> 100 µM (inactive)	–	> 100 µM (inactive)	> 100 µM (inactive)	> 100 µM (inactive)	> 100 µM (inactive)	> 100 µM (inactive)	> 100 µM (inactive)	> 100 µM (inactive)	> 100 µM (inactive)	> 100 µM (inactive)	> 100 µM (inactive)	> 100 µM (inactive)	> 100 µM (inactive)	> 100 µM (inactive)	–	–	–

— ChEMBL document CHEMBL1201862, “PubChem BioAssay data set” (2004)
